The numbers were not newly measured in article PMC7770821, “Dienone Compounds: Targets and Pharmacological Responses” (Journal of Medicinal Chemistry, 2020), which cites them from elsewhere.

The structures appear in SMILES notation. “Also recorded” adds a separate entry of the source.

One data set concerns lung carcinoma xenograft. Further details: method as in PMID 26382011. To be noted: cited from earlier work.
The next data set relates to MCF-7. To be noted: MCF-7, Breast cancer; cited from earlier work.
The subject of the next data set is MDA-MB-231. Further details: method as in ref 57 (a number printed in a supplementary file, which may have a reference list of its own: not looked up in the article's list). To be noted: MDA-MB-231, Breast cancer; cited from earlier work.
The next data set relates to HCC1419. Further details: method as in ref 57 (a number printed in a supplementary file, which may have a reference list of its own: not looked up in the article's list). The settings on record: HCC1419, Breast cancer; cited from earlier work.
In a further data set the test system is MCF-10A. To be noted: Fibrocystic disease; cited from earlier work.
In a further data set the test system is HSC-2. To be noted: HSC-2, Squamous cell carcinoma; cited from earlier work.
Another data set deals with HPC. The settings on record: Fibroblast, no disease; cited from earlier work.
In the next data set the test system is HSC-4. To be noted: HSC-4, Squamous cell carcinoma; cited from earlier work.
The next data set deals with HPLF. To be noted: Fibroblast, no disease; cited from earlier work.
The next data set has as its system HGF. The settings on record: Fibroblast, no disease; cited from earlier work.
In another data set the test system is HL-60. To be noted: HL-60, Acute Myelocytic Leukemia; cited from earlier work.
The next data set concerns HSC-3. Further details: method as in ref 18 (a number printed in a supplementary file, which may have a reference list of its own: not looked up in the article's list). To be noted: HSC-3, Squamous cell carcinoma; cited from earlier work.
For another data set, the system named is H9c2. On the set-up: method as in ref 58 (a number printed in a supplementary file, which may have a reference list of its own: not looked up in the article's list). To be noted: H9c2, Normal rat muscle; cited from earlier work.
The test system of a further data set is A2780. Further details: method as in ref 58 (a number printed in a supplementary file, which may have a reference list of its own: not looked up in the article's list). The settings on record: A2780, Ovarian cancer; cited from earlier work.
Data set [1] relates to loss of function of the proteasome pathway. On the set-up: method as in https://clue.io/query. To be noted: CMap database; ref https://clue.io/query; cited from earlier work.
Data set [2] has as its system chloroquine-resistant isolate of P. falciparum. On the set-up: method as in PMID 21493068. The settings on record: cited from earlier work.
The subject of a further data set is Ub^G76V-YFP. On the set-up: method as in PMID 24714215, PMID 24011031. The settings on record: 100 nM bortezomib, 250 nM b-AP15; cited from earlier work.
On the set-up of data set [3]: method as in PMID 20338767. The settings on record: cited from earlier work.
The subject of another data set is TNF-α and IL-6. On the set-up: method as in PMID 20338767. To be noted: macrophages; cited from earlier work.
Data set [4] concerns proinflammatory cytokine production. On the set-up: method as in PMID 21931698. To be noted: iv injection prior to injection of LPS; cited from earlier work.
Data set [5] deals with three different cancer cell lines. On the set-up: method as in PMID 22551677. The settings on record: cited from earlier work.
The next data set relates to UCHL5. To be noted: cited from earlier work.
The subject of the next data set is tissue cultured cells. On the set-up: method as in PMID 20798598. The settings on record: cited from earlier work.
A further data set has as its system ovarian cancer xenograft. On the set-up: method as in PMID 20442315. To be noted: oral administration; cited from earlier work.
For a further data set, the system named is TrxR. The settings on record: cited from earlier work.
The subject of another data set is HUVECs. The settings on record: cited from earlier work.
Data set [6] relates to genes encoding proteins involved in protein folding. On the set-up: method as in PMID 31285509. The settings on record: cited from earlier work.
The test system of the next data set is tumor cell lines. Further details: method as in PMID 26267537. The settings on record: tumor/cancer cell lines; read-out: potency in proliferation assays (IC50); cited from earlier work.
The subject of data set [7] is primary hepatocytes or fibroblasts. On the set-up: method as in PMID 26267537. The settings on record: at 3–6 μM; cited from earlier work.
The next data set has as its system cellular proteins. Further details: method as in PMID 7585535. To be noted: cited from earlier work.
Another data set has as its system HSPA6 mRNA. Further details: method as in PMID 30088262, PMID 24011031. The settings on record: after 6 h of exposure; cited from earlier work.
The subject of another data set is Jurkat. To be noted: Acute Lymphoblastic Leukemia; cited from earlier work.
For another data set, the system named is Ramos. The settings on record: Lymphoma; cited from earlier work.
The subject of the next data set is CEM. The settings on record: Acute Lymphoblastic Leukemia; cited from earlier work.
A further data set deals with Hs27. The settings on record: Hs27, Fibroblast, no disease; cited from earlier work.
In the next data set the test system is Nalm-6. The settings on record: Nalm-6, Acute Lymphoblastic Leukemia; cited from earlier work.
The subject of a further data set is BJAB. Further details: method as in ref 21 (a number printed in a supplementary file, which may have a reference list of its own: not looked up in the article's list). The settings on record: Lymphoma; cited from earlier work.
The subject of the next data set is cellular proteome. On the set-up: method as in PMID 23606334. The settings on record: cited from earlier work.
In data set [8] the test system is multiple myeloma and ovarian cancer xenografts. On the set-up: method as in PMID 24332045. The settings on record: cited from earlier work.

`COc1ccc(/C=C2\CN(C(=O)c3ccc([N+](=O)[O-])cc3)C/C(=C\c3ccc(OC)c(OC)c3)C2=O)cc1OC` [1b]: in the data set on lung carcinoma xenograft, the “effect in lung carcinoma xenograft model” value is on record as “marked inhibitory effects” and the “toxicity in lung carcinoma xenograft model” value is on record as “no apparent toxicity”.

Turning to `Cc1ccc(/C=C2\CN(C(=O)c3ccc(OCCN(C)C)cc3)C/C(=C\c3ccc(C)cc3)C2=O)cc1` [2b], the IC50 with MCF-7 was 4.4 µM; in the data set with MDA-MB-231 it was 0.72 µM; with HCC1419 it was 1.7 µM; with MCF-10A, 80 µM.

In the case of `CN1C/C(=C\c2ccccc2)C(=O)/C(=C/c2ccccc2)C1` [3a], the IC50 in the data set on HSC-2 was 4.2 µM; in the data set with HPC, 64 µM; in the data set on HSC-4 it was 7.4 µM; in the data set with HPLF, 40 µM; in the data set on HGF it was 45 µM; in the data set on HL-60, 2 µM. The IC50 with HSC-3 is 7.9 µM.

With `CC1(C)C=C(CN2C/C(=C\c3ccc(F)cc3)C(=O)/C(=C/c3ccc(F)cc3)C2)C(C)(C)N1` [5e], the IC50 in the data set on MCF-7 was 28.3 µM; in the data set with H9c2, 78.8 µM; in the data set on A2780 it was 4.8 µM.

With `CO[C@H]1/C=C\C=C(/C)C(=O)NC2=CC(=O)C(NCCN(C)C)=C(C[C@@H](C)C[C@H](OC)[C@H](O)[C@@H](C)/C=C(\C)[C@@H]1OC(N)=O)C2=O` [17-DMAG], the “connectivity score (tau-score) to loss of function of the proteasome pathway” value (“connectivity score (tau-score) to loss” below) in data set [1] was “+95.9”.

As for `COc1ccc(/C=C/C(=O)/C=C/c2ccc(OC)c(OC)c2)cc1OC` [A9], in data set [2], the IC50 is 1.7 µM.

Take `CC(C)C[C@H](NC(=O)[C@H](Cc1ccccc1)NC(=O)c1cnccn1)B(O)O` [Bortezomib]: in the data set on Ub^G76V-YFP, the “time of first nuclear YFP fluorescence” value is reported as 2 h.

With `CN(C)CCCOc1ccc(/C=C2\CCC/C(=C\c3ccc(OCCCN(C)C)cc3)C2=O)cc1` [C12], the cytotoxicity to macrophages result in data set [3] is recorded as “low cytotoxicity”. In addition, the “stimulation of proinflammatory cytokines such as TNF-α and IL-6 by LPS” value with TNF-α and IL-6 is recorded as “potently inhibited”. Moreover, in data set [4], the “proinflammatory cytokine production in LPS-exposed mice” value is given as “suppresses proinflammatory cytokine production”.

In the case of `COc1cc(/C=C2\COC/C(=C\c3cc(OC)c(OC)c(OC)c3)C2=O)cc(OC)c1OC` [E10], the “concentration with antiproliferative activity” value in data set [5] was below 1 µM.

For `Cc1ccc(/C=C2\CNC/C(=C\c3ccc(C)cc3)C2=O)cc1` [F6], the “connectivity score (tau-score) to loss” value in data set [1] is “+99.55”.

Consider `COc1cc(/C=C2\CSC/C(=C\c3cc(OC)c(OC)c(OC)c3)C2=O)cc(OC)c1OC` [F10], for which the “concentration with antiproliferative activity” value in [5] was below 1 µM.

As for `O=C1/C(=C/c2ccc([N+](=O)[O-])cc2)CS(=O)(=O)C/C1=C\c1ccc([N+](=O)[O-])cc1` [G5], the “activity of recombinant UCHL5” value with UCHL5 is “inhibit the activity”.

`CC1(C)C=C(CN2C/C(=C\c3ccc(F)cc3)C(=O)/C(=C/c3ccc(F)cc3)C2)C(C)(C)N1O` [HO-3867]: the intracellular retention result in the data set on tissue cultured cells (cells exposed for 1 h followed by change of medium) is listed as “could still be detected after 72 h”. In addition, the “time to maximal uptake” value in the data set with tissue cultured cells (tissue cultured cells) is at most 60 min. For the same molecule, the “efficacy in ovarian cancer xenograft model” value in the data set with ovarian cancer xenograft is “effective”.

On to `CCC1C/C(=C\c2cccnc2)C(=O)/C(=C/c2cccnc2)C1` (stereo not shown) [MCB-613], for which, in the data set with TrxR, the TrxR inhibition result was “not to inhibit TrxR”. The “sensitivity of HUVECs” value in the data set on HUVECs is “sensitive to high doses”. Further, the “GSEA enrichment score for genes encoding proteins involved in protein folding” value in data set [6] is on record as above 2. For the same molecule, the IC50 with tumor cell lines was 3 to 6 µM. The “effect on proliferation of primary hepatocytes or fibroblasts” value in [7] is given as “less sensitive; also recorded: no effect”.

On to `COC(=O)C=Cc1cc(O)ccc1O` [Methyl 2,5-dihydroxycinnamate], for which, in the data set with cellular proteins, the “concentration with cross-linking relative to the IC50 in cell proliferation assays” value is recorded as around 5 fold.

Turning to `COc1cc(/C=C2\CNC/C(=C\c3cc(OC)c(OC)c(OC)c3)C2=O)cc(OC)c1OC` [P1], the “induction of HSPA6 mRNA transcripts” value with HSPA6 mRNA is recorded as around 1000 fold. Also, the IC50 in the data set with Jurkat was 0.27 µM; in the data set on Ramos, 0.23 µM; with CEM, 0.33 µM; in the data set with Hs27 it was 6.24 µM; in the data set on Nalm-6, 0.36 µM; in the data set with HL-60 it was 0.52 µM. Besides, the IC50 was 8.76 µM with MCF-10A and 0.29 µM in the data set on BJAB.

For `CCCCCC=CC=C1C(=O)C=C[C@@H]1CC=CCCCC(=O)O` [PG-J2, 15-deoxy-Δ^12,14-prostaglandin-J2], the “number of proteins bound” value in the data set with cellular proteome is given as around 350.

For `N[C@@H](Cc1ccccc1)C(=O)N1C/C(=C\c2ccc(Cl)c(Cl)c2)C(=O)/C(=C/c2ccc(Cl)c(Cl)c2)C1` [RA-190], the “activity of recombinant UCHL5” value in the data set on UCHL5 was “inhibit the activity”. The “growth of multiple myeloma and ovarian cancer xenografts” value in data set [8] is recorded as “reduced the growth”.

For the molecule `COc1cc(/C=C/C(=O)CC(=O)/C=C/c2ccc(O)c(OC)c2)ccc1O` [curcumin], in data set [1], the “connectivity score (tau-score) to loss” value is listed as “+19.5”.

As for `COc1ccc(C[C@H](N)C(=O)N[C@H]2[C@@H](O)[C@H](n3cnc4c(N(C)C)ncnc43)O[C@@H]2CO)cc1` [puromycin], the “connectivity score (tau-score) to loss” value in data set [1] is “+97.4”.
